From the NIST ThermoML archive (doi:10.1021/je200668a)
Several values for one entry are separate records, joined by “and”; a condition that tells them apart may be missing. Equal entries are not always repeated.

Details: Liquid, Pulse Transmission

O [water]
Details | speed of sound
252.47 K, 215100 kPa | 1715.3 m/s
252.47 K, 220000 kPa | 1725.1 m/s
252.5 K, 205200 kPa | 1695.9 m/s
252.5 K, 209900 kPa | 1705.2 m/s
252.5 K, 215300 kPa | 1716.8 m/s
252.5 K, 240000 kPa | 1764.3 m/s
252.51 K, 220200 kPa | 1726.7 m/s
252.51 K, 235100 kPa | 1754.9 m/s
252.51 K, 245400 kPa | 1774.8 m/s
252.52 K, 210100 kPa | 1705.8 m/s and 1706 m/s
252.52 K, 244900 kPa | 1773.9 m/s
252.53 K, 200100 kPa | 1685.4 m/s
252.53 K, 204800 kPa | 1695.3 m/s
252.53 K, 215300 kPa | 1716.3 m/s
252.53 K, 225100 kPa | 1735.1 m/s
252.53 K, 230000 kPa | 1745 m/s and 1745.4 m/s
252.53 K, 240100 kPa | 1764.5 m/s
252.54 K, 235200 kPa | 1755.1 m/s
252.54 K, 239200 kPa | 1762.7 m/s
252.54 K, 245000 kPa | 1774.1 m/s
252.55 K, 225000 kPa | 1736.1 m/s
252.56 K, 204900 kPa | 1695.4 m/s
252.57 K, 198900 kPa | 1683.1 m/s
252.57 K, 199400 kPa | 1684.1 m/s
252.57 K, 229900 kPa | 1744.6 m/s
252.57 K, 235200 kPa | 1754.8 m/s
252.59 K, 225100 kPa | 1735.8 m/s
252.61 K, 220300 kPa | 1726.3 m/s
257.59 K, 225300 kPa | 1755 m/s
257.6 K, 175100 kPa | 1654.5 m/s
257.61 K, 199500 kPa | 1703.9 m/s
257.61 K, 275200 kPa | 1847.7 m/s
257.62 K, 274400 kPa | 1845.4 m/s
257.64 K, 250200 kPa | 1801.3 m/s
257.65 K, 224100 kPa | 1752.6 m/s
257.65 K, 276100 kPa | 1848.6 m/s
257.66 K, 199900 kPa | 1705.5 m/s
257.66 K, 299900 kPa | 1889.6 m/s
257.67 K, 249400 kPa | 1799.8 m/s
257.67 K, 299700 kPa | 1889.4 m/s
257.67 K, 300200 kPa | 1890.9 m/s
257.67 K, 374600 kPa | 2011.2 m/s
257.68 K, 325400 kPa | 1932.5 m/s
257.68 K, 375300 kPa | 2012.5 m/s
257.69 K, 176400 kPa | 1657.4 m/s
257.69 K, 199600 kPa | 1704.5 m/s
257.69 K, 249500 kPa | 1800.5 m/s
257.69 K, 349300 kPa | 1972.1 m/s
257.69 K, 350000 kPa | 1972.9 m/s
257.7 K, 176200 kPa | 1657.4 m/s
257.7 K, 224600 kPa | 1754 m/s
257.7 K, 325000 kPa | 1928.5 m/s
257.7 K, 325400 kPa | 1932.5 m/s
262.63 K, 299800 kPa | 1906 m/s
262.65 K, 224800 kPa | 1771.8 m/s
262.68 K, 250600 kPa | 1820.4 m/s
262.71 K, 324500 kPa | 1944.4 m/s
262.71 K, 349400 kPa | 1982.7 m/s
262.71 K, 399900 kPa | 2060 m/s
262.72 K, 274600 kPa | 1861.2 m/s
262.72 K, 374300 kPa | 2023.2 m/s
262.72 K, 424300 kPa | 2095.3 m/s
262.73 K, 249700 kPa | 1816.5 m/s
262.73 K, 299400 kPa | 1903.1 m/s
262.73 K, 324600 kPa | 1945.1 m/s
262.73 K, 349600 kPa | 1984.2 m/s
262.74 K, 124100 kPa | 1574.1 m/s
262.74 K, 199800 kPa | 1725.4 m/s
262.74 K, 299600 kPa | 1903.2 m/s
262.74 K, 425600 kPa | 2097.8 m/s
262.74 K, 449400 kPa | 2130.8 m/s
262.74 K, 450500 kPa | 2133 m/s
262.75 K, 274500 kPa | 1860.6 m/s
262.76 K, 148400 kPa | 1623.4 m/s
262.76 K, 150700 kPa | 1629.8 m/s
262.76 K, 199800 kPa | 1724.8 m/s
262.76 K, 224600 kPa | 1772.3 m/s
262.76 K, 251000 kPa | 1819.5 m/s
262.76 K, 350600 kPa | 1986.4 m/s
262.76 K, 375100 kPa | 2023 m/s
262.76 K, 399300 kPa | 2058.1 m/s
262.77 K, 126300 kPa | 1578.6 m/s
262.77 K, 174800 kPa | 1677.2 m/s and 1676.9 m/s
262.78 K, 399700 kPa | 2061.2 m/s
262.81 K, 149800 kPa | 1626.1 m/s
262.81 K, 200800 kPa | 1728.7 m/s
267.77 K, 199500 kPa | 1744.1 m/s
267.78 K, 100800 kPa | 1554.9 m/s
267.78 K, 300400 kPa | 1918.4 m/s
267.78 K, 349700 kPa | 1997.2 m/s
267.79 K, 149600 kPa | 1649.8 m/s and 1648.8 m/s
267.79 K, 399600 kPa | 2070.9 m/s
267.79 K, 500400 kPa | 2208.8 m/s
267.8 K, 249400 kPa | 1833.6 m/s
267.8 K, 449300 kPa | 2141.5 m/s
267.81 K, 98500 kPa | 1551.2 m/s
267.82 K, 400000 kPa | 2071.6 m/s
267.84 K, 100500 kPa | 1554.9 m/s
267.84 K, 199500 kPa | 1744.6 m/s
267.84 K, 450700 kPa | 2144.1 m/s
267.84 K, 500100 kPa | 2209.7 m/s
267.85 K, 299400 kPa | 1918.6 m/s
267.86 K, 399700 kPa | 2071.2 m/s
267.87 K, 249600 kPa | 1835 m/s
267.87 K, 251100 kPa | 1837.5 m/s
267.87 K, 349700 kPa | 1997.5 m/s
267.87 K, 449200 kPa | 2142.4 m/s
267.88 K, 150800 kPa | 1652.5 m/s
267.88 K, 299600 kPa | 1919.3 m/s
